From ChEMBL document CHEMBL1201862, “PubChem BioAssay data set” (2004)
Calls of active or inactive are those of the source.

Experiments:
[1] = target: Peroxisome proliferator-activated receptor gamma/Nuclear receptor coactivator 3 (Homo sapiens, UniProt P37231); experiment: TR-FRET dose response biochemical High Throughput Screening assay for agonists of the steroid receptor coactivator 3 (SRC-3) recruitment by the peroxisome proliferator-activated receptor gamma (PPAR gamma): non-selective agonists. [Related pubchem assays: 1301 (Confirmation screen.), 1048 (Primary screen.)]; format: functional
[2] = target: Peroxisome proliferator-activated receptor gamma/Nuclear receptor coactivator 1 (Homo sapiens, UniProt P37231); experiment: TR-FRET dose response biochemical High Throughput Screening assay for agonists of the steroid receptor coactivator 1 (SRC-1) recruitment by the peroxisome proliferator-activated receptor gamma (PPAR gamma): non-selective agonists. [Related pubchem assays (depositor defined):AID1300, AID1808, AID504735, AID631]; format: protein assay
[3] = target: Peroxisome proliferator-activated receptor gamma/Nuclear receptor coactivator 2 (Homo sapiens, UniProt P37231); experiment: TR-FRET dose response biochemical High Throughput Screening assay for agonists of the steroid receptor coactivator 2 (SRC-2) recruitment by the peroxisome proliferator-activated receptor gamma (PPAR gamma): non-selective agonists. [Related pubchem assays: 1297, 1032 ]; format: functional
[4] = target: T1, Type-1 angiotensin II receptor (Homo sapiens, UniProt P30556); experiment: antagonism of angiotensin II type 1 receptor – cell-based, uHTS hits, selectivity assay for APJ receptor antagonist project, dose response (AID 463214); format: functional;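 note: antagonist potency against angiotensin II stimulated AT1 response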
T1 sequence (P30556 whole entry): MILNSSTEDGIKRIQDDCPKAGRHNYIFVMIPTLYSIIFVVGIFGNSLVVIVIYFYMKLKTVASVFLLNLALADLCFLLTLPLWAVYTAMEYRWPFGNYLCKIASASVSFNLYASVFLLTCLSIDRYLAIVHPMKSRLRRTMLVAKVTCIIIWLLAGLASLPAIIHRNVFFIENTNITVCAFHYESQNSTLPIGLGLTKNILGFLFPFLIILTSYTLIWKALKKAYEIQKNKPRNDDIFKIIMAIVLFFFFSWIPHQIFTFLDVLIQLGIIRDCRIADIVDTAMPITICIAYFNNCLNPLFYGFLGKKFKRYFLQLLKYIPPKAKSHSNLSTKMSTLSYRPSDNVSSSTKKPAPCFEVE

[5] = target: Beta-galactosidase (Escherichia coli, UniProt Q8VNN2); experiment: PubChem AID 485352; format: functional
[6] = target: Glyceraldehyde-3-phosphate dehydrogenase (Homo sapiens, UniProt P04406)
[7] = target: T2, Alkaline phosphatase, tissue-nonspecific isozyme (Homo sapiens, UniProt P05186); experiment: potency against alkaline phosphatase TNAP – biochemical, luminescent, dose response, SAR follow-up (AID 1056)
T2 sequence (P05186 whole entry): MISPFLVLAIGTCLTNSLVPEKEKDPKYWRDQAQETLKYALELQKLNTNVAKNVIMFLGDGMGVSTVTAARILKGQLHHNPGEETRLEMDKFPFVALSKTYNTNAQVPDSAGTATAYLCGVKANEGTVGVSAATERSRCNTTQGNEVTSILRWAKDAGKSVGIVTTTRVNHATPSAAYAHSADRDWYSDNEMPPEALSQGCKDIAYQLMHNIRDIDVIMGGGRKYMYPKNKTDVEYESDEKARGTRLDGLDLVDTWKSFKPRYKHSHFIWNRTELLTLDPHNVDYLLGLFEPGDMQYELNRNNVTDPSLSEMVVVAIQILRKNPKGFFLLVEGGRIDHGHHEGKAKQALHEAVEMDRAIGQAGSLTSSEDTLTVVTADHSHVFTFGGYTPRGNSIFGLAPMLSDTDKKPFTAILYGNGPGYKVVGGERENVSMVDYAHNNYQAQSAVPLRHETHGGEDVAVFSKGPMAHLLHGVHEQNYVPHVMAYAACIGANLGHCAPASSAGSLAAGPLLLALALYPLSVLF

[8] = target: T3, Ubiquitin-conjugating enzyme E2 N (Homo sapiens, UniProt P61088); format: functional
T3 sequence (P61088 whole entry): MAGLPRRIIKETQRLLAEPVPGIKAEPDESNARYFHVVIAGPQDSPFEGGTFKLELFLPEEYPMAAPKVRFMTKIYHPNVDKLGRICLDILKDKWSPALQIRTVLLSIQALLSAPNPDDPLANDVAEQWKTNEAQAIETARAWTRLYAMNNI

[9] = target: T4, Bcl-2-related protein A1 (Mus musculus, UniProt Q07440); format: functional;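 note: confirmatory dose–response counterscreen on Bfl-1, used to check hits from a UBC13 polyubiquitin inhibitor campaign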
T4 sequence (Q07440 whole entry): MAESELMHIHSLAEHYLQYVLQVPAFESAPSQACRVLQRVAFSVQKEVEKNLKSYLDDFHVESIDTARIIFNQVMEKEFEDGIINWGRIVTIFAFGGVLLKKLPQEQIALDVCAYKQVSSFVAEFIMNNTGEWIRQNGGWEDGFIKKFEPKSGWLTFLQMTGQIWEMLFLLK

[10] = target: T3, Ubiquitin-conjugating enzyme E2 N; format: functional; remark: listed apart in the source
[11] = target: Glucose-6-phosphate 1-dehydrogenase (Homo sapiens, UniProt P11413); experiment: inhibition of Homo sapiens G6PD, dose series – biochemical, fluorescence, selectivity assay for P. falciparum G6PD inhibitor project, dose response (AID 504792); format: functional
[12] = loss of viability in HepG2 cells – cell-based, CellTiter-Glo, cherry-picked, cytotoxicity control for Shn3 inhibitor project, dose response (AID 624134); format: functional
[13] = viability of PTEN-deleted HCT116 cells – cell-based, HCT116 PTEN knockout, dose response (AID 1047); format: functional;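 note: HCT116 colon tumor cells with PTEN knocked out; cells exposed to compound for 60 hours before readout; potency for loss of cell viability measured by luminescence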
[14] = target: T5, Voltage-gated N-type calcium channel alpha-1B subunit/Amyloid beta A4 precursor protein-binding family A member 1 (Homo sapiens, UniProt Q00975+Q02410); format: protein assay
[15] = non-specific 3'UTR reporter inhibition in Clone20-Shn3RL – cell-based, Renilla luciferase, cherry-picked, counter-screen for Shn3 inhibitor project, dose response (AID 624133); format: functional
[16] = target: DNA dC->dU-editing enzyme APOBEC-3G (Homo sapiens, UniProt Q9HC16); experiment: Dose Response confirmation of small molecule APOBEC3G DNA Deaminase Inhibitors via a fluorescence-based single-stranded DNA deaminase assay. [Related pubchem assays (depositor defined):AID493012, AID493028]; format: functional
[17] = target: T5, Voltage-gated N-type calcium channel alpha-1B subunit/Amyloid beta A4 precursor protein-binding family A member 1; format: protein assay; remark: listed apart in the source
[18] = reduction of Shn3 3'UTR-driven luciferase in osteoblasts – cell-based, Clone20 osteoblasts, firefly luciferase, cherry-picked, dose response (AID 624132); format: functional;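 note: firefly luciferase luminescence from reporter carrying the Shn3 3'UTR in osteoblasts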
[19] = viability of HCT116 lacking mutant beta-catenin – cell-based, human colon tumor, dose response (AID 1045); format: functional;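 note: HCT116 colon tumor cells with beta catenin knocked out; cells exposed to compound for 60 hours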
[20] = target: T6, Short transient receptor potential channel 4 (Mus musculus, UniProt Q9QUQ5); experiment: block of DAMGO-driven TRPC4 calcium entry – cell-based, HEK293 TRPC4/mu-opioid, Fluo-4 calcium, dose response (AID 434942); format: functional;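 note: potency of inhibitors blocking the TRPC4 calcium response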
T6 sequence (Q9QUQ5 whole entry): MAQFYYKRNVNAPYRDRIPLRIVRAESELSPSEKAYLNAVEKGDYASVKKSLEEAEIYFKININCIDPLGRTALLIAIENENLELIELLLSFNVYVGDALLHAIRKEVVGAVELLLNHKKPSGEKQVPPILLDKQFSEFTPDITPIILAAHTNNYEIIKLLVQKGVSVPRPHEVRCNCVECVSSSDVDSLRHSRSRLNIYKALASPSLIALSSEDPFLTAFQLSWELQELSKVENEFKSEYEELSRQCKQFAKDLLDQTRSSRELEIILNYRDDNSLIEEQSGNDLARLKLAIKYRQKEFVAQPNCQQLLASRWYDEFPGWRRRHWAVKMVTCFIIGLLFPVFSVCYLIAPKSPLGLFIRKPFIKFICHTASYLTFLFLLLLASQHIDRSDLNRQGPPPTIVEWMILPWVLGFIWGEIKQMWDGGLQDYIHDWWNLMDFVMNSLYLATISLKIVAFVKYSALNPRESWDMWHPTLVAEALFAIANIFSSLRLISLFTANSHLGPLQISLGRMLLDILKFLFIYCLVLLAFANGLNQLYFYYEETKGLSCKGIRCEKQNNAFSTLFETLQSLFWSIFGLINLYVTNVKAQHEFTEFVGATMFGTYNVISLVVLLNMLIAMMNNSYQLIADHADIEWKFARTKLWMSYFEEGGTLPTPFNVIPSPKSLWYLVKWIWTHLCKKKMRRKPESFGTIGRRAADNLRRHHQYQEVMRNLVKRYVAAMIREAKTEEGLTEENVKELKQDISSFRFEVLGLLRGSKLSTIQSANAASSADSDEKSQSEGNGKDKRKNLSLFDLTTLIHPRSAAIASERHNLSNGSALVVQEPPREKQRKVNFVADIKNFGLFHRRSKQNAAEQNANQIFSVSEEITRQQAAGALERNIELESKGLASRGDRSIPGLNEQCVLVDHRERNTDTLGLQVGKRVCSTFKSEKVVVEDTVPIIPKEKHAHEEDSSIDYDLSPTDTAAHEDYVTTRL

[21] = target: Cytochrome P450 2C19 (Homo sapiens, UniProt P33261); experiment: Cytochrome panel assay with activity outcomes. Panel member name: p450-cyp2c19 Compounds with AC50 equal or less than 10 uM are considered active; format: functional
[22] = Trypanosoma cruzi growth suppression in host cells – NIH3T3 host cells, beta-gal luminescence, confirmation (AID 2044); format: functional, cell-based;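 note: intracellular parasites grown in NIH/3T3 mouse fibroblasts as host cells; luminescent beta-galactosidase reporter signal from transgenic T. cruzi replicating inside host cells; inhibitors lower the luminescence signal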
[23] = NIH3T3 cell viability loss – ATP luminescence, mouse fibroblasts, counter-screen, dose response (AID 2010); format: functional, cell-based;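 note: cells exposed to compound for about 90 hours before reading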
[24] = target: T6, Short transient receptor potential channel 4; experiment: calcium entry via TRPC4 opening agents – cell-based, HEK293 TRPC4/mu-opioid, Fluo-4 calcium, dose response (AID 434937); format: functional

Beta-galactosidase, sequence (Q8VNN2 whole entry): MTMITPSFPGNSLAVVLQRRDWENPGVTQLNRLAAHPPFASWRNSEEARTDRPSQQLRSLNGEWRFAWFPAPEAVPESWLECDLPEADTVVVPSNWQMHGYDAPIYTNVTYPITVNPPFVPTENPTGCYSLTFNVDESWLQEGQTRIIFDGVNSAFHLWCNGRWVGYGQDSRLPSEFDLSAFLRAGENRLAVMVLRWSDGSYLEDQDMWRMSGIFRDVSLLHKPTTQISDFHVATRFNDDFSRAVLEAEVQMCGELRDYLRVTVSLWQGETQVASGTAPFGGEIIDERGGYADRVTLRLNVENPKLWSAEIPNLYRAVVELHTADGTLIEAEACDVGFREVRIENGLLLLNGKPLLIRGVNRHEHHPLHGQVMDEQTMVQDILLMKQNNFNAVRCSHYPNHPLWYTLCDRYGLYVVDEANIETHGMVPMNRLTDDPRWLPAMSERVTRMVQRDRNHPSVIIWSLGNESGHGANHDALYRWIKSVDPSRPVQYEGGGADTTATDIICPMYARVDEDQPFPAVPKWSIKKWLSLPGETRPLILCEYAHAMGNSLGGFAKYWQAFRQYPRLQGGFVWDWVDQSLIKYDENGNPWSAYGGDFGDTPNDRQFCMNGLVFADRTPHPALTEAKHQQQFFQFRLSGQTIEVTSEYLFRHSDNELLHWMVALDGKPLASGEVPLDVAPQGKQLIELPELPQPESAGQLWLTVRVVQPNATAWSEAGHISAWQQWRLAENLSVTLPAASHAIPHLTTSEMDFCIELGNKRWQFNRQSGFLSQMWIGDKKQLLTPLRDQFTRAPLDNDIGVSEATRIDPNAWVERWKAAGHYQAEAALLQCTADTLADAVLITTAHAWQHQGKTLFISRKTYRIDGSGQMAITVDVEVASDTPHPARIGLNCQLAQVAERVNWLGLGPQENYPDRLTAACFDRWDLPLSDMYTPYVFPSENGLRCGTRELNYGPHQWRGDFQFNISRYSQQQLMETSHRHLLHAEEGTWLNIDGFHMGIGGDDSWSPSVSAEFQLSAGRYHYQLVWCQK
Peroxisome proliferator-activated receptor gamma/Nuclear receptor coactivator 2, sequence (P37231 whole entry): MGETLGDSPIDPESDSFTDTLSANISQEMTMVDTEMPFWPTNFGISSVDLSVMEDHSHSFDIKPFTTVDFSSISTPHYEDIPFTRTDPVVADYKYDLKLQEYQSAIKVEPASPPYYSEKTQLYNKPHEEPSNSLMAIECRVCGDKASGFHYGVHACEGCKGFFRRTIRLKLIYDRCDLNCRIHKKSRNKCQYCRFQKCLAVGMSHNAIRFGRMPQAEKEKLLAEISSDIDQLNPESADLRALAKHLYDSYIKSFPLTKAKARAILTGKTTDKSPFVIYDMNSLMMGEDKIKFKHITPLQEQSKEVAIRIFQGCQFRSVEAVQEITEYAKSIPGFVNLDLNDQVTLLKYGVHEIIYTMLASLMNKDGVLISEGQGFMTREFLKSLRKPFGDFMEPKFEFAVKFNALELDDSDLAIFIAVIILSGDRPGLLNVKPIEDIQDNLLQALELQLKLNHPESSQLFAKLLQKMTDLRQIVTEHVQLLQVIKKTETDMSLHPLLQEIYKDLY
Peroxisome proliferator-activated receptor gamma/Nuclear receptor coactivator 2, sequence (Q15596 whole entry, further chain): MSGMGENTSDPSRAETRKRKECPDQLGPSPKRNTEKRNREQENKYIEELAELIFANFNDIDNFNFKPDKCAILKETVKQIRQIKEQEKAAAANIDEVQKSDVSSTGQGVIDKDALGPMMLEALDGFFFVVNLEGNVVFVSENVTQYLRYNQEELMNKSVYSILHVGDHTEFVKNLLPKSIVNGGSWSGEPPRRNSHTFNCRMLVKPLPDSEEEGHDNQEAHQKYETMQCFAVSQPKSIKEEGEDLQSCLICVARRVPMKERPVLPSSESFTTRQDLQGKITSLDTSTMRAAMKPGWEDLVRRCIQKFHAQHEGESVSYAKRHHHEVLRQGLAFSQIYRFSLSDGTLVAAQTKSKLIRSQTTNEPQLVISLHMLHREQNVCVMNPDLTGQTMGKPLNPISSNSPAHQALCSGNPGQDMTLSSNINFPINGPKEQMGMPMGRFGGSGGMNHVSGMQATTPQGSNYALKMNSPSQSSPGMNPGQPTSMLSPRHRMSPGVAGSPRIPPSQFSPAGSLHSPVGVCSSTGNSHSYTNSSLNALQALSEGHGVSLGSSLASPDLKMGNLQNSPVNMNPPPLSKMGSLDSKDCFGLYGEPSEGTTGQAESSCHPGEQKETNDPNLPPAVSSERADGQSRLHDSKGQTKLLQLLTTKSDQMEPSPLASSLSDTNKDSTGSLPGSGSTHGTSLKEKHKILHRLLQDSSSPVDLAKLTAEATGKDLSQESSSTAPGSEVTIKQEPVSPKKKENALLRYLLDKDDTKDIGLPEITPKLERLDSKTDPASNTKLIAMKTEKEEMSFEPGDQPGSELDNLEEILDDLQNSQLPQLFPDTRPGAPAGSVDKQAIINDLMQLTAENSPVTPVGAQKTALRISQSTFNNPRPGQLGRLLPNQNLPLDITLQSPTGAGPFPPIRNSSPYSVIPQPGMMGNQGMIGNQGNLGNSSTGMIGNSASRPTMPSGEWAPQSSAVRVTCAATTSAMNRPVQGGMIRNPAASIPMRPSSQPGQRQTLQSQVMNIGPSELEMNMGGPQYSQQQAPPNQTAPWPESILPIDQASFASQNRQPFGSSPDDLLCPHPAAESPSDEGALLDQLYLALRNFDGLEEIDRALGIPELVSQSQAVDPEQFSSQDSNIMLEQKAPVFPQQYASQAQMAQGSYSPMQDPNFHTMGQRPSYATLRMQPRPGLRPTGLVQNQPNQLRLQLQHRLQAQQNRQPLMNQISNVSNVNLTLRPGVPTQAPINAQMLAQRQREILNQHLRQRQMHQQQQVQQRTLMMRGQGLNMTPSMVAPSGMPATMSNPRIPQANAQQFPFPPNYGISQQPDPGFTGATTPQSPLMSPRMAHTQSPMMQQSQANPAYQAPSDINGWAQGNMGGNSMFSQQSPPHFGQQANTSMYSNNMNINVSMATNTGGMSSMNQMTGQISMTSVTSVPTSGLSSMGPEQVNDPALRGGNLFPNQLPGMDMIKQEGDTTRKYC
Peroxisome proliferator-activated receptor gamma/Nuclear receptor coactivator 1, sequence (P37231 whole entry): as the sequence (P37231 whole entry) above
Peroxisome proliferator-activated receptor gamma/Nuclear receptor coactivator 1, sequence (Q15788 whole entry, further chain): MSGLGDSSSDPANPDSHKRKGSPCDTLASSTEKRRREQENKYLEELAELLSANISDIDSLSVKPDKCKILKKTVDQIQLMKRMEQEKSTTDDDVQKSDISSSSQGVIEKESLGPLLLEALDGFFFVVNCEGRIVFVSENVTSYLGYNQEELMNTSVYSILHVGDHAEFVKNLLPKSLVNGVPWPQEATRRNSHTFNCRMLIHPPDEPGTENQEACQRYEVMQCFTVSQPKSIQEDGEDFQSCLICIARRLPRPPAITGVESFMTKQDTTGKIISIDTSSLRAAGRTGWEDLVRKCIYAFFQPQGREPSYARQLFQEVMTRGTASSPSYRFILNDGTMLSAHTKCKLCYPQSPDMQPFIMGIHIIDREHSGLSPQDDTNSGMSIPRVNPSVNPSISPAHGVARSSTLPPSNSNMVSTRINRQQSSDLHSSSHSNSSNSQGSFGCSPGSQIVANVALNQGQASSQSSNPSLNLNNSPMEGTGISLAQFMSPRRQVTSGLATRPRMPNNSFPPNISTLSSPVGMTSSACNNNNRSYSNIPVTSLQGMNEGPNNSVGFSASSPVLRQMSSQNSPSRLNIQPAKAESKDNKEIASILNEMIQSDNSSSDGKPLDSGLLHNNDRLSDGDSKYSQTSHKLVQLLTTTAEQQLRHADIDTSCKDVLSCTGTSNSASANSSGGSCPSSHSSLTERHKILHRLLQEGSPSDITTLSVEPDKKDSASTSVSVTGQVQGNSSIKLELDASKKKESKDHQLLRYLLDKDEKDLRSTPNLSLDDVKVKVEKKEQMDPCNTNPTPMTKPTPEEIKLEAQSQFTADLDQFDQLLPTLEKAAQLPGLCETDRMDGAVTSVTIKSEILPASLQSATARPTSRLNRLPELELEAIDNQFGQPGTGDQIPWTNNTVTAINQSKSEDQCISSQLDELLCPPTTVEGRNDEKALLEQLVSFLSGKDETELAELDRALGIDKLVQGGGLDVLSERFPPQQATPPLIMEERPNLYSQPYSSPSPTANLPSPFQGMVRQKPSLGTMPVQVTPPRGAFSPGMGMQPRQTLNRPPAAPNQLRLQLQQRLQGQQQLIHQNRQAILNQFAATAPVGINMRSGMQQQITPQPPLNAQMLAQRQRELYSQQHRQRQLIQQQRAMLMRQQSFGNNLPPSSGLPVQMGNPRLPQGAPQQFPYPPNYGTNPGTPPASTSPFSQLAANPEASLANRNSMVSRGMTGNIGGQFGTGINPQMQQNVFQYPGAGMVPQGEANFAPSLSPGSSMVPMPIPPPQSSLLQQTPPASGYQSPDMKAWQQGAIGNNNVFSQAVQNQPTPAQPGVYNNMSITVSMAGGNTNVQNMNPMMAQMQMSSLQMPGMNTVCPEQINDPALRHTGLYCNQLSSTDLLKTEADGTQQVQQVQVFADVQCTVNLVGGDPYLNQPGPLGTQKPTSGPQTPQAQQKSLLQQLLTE

## COc1ccc(CC(=O)Nc2ccc(-c3nc4cc(C)ccc4o3)c(O)c2)cc1OC
[1]
  EC50: > 79.4 µM (not active)
[2]
  EC50: 27.8 µM (inactive)
[3]
  EC50: 24 µM (not active)

## Cc1ccc(NCC(=O)c2ccccc2)cc1Cl
[4]
  IC50: 5.7 µM (active)
[5]
  EC50: > 40 µM (inactive)

## Cn1c(=O)cc(SCC(=O)N2CCCC2)c2ccccc21
[1]
  EC50: > 79.4 µM (not active)
[2]
  EC50: > 79.4 µM (inactive)
[3]
  EC50: > 79.4 µM (not active)

## S=C(N/N=C/c1ccc(Cl)cc1)N1CCOCC1
[4]
  IC50: 7.99 µM (active)
[5]
  EC50: > 40 µM (inactive)

## O=C1C2CCCCC2C(=O)N1c1nc(CCc2ccccc2)n[nH]1 (configuration not stated)
[6]
  IC50: > 100 µM (not active)
[7]
  IC50: > 100 µM (inactive)

## Cc1ccc2c(c1)C(=O)C(=O)N2c1ccc(Cl)cc1
[4]
  IC50: 33.2 µM (not active)
[5]
  EC50: > 40 µM (inactive)

## CCOc1cc(C)ccc1S(=O)(=O)Nc1cccnc1
[6]
  IC50: > 100 µM (not active)
[7]
  IC50: > 100 µM (inactive)

## C#CCOCCOCCOCCNc1nc(N2CCN(C(=O)C([C@@H](C)O)n3cc([C@@H](N)CCCCN)nn3)CC2)nc(N2CCN(C(=O)[C@H](CCCN=C(N)N)n3cc(C(N)[C@@H](C)CC)nn3)CC2)n1 (some centres not stated)
[8]
  IC50: 12.1 µM (active)
[9]
  IC50: > 20 µM (inactive)
[10]
  IC50: 7.99 µM (active)

## COc1ccc(NS(=O)(=O)c2cc(C(=O)N3CCC3)ccc2C)cc1
[8]
  IC50: 19.8 µM (active)
[9]
  IC50: > 20 µM (inactive)
[10]
  IC50: > 20 µM (inactive)

## COc1ccccc1NS(=O)(=O)c1ccc(OC)c2ncccc12
[6]
  IC50: > 100 µM (not active)
[7]
  IC50: > 100 µM (inactive)

## CCOC(=O)C1CCCN(C(=O)Cn2sc3nc(C)cc(C)c3c2=O)C1 (configuration not stated)
[11]
  IC50: 47.1 µM (inactive)
[12]
  AC50: > 70 µM (inactive)
[13]
  EC50: 25.9 µM (active)
[14]
  IC50: > 50 µM (inactive)
[15]
  AC50: 7.5 µM (active)
[16]
  IC50: 6.17 µM (active)
[17]
  IC50: 12.6 µM (active)
[18]
  AC50: 12.5 µM (active)
[19]
  EC50: 21.6 µM (active)

## CCOC(=O)c1cc(-c2cccc(C(F)(F)F)c2)n[nH]1
[6]
  IC50: > 100 µM (not active)
[7]
  IC50: > 100 µM (inactive)

## OCC1(CCc2ccccc2)CCN(Cc2ccc3nsnc3c2)CC1
[1]
  EC50: > 79.4 µM (not active)
[2]
  EC50: 42.2 µM (inactive)
[3]
  EC50: 29.1 µM (not active)
[20]
  EC50: 8.41 µM (active)

## CCc1cc2c(=O)n(-c3ccccc3)c(=S)[nH]c2s1
[1]
  EC50: > 79.4 µM (not active)
[2]
  EC50: > 79.4 µM (inactive)
[21]
  AC50: inconclusive
[8]
  IC50: > 20 µM (inactive)
[3]
  EC50: > 79.4 µM (not active)

## COc1ccc(-c2cc(C#N)nc(N3CCNCC3)n2)cc1
[22]
  EC50: 3.69 µM (active)
[13]
  EC50: 15.2 µM (active)
[23]
  EC50: > 60 µM (not active)
[8]
  IC50: 15.5 µM (active)
[24]
  EC50: 1.88 µM (active)
[9]
  IC50: > 20 µM (inactive)
[10]
  IC50: 15.9 µM (active)
[19]
  EC50: 9.93 µM (active)

## NNC(=O)c1cc(-c2ccc(F)cc2F)[nH]n1
[6]
  IC50: > 10 µM (inconclusive)
[7]
  IC50: 0.12 µM (active)

## CC(C)CC(C(=O)NC(C)(C)C)N(Cc1ccccc1Cl)C(=O)c1snc(C(N)=O)c1N (configuration not stated)
[8]
  IC50: 14.5 µM (active)
[9]
  IC50: > 20 µM (inactive)
[10]
  IC50: 12.5 µM (active)
